Assay results as given in patent publication US8247211B2, “Glycopeptide antibiotics” (American Cyanamid Company, priority 2001, dated 2012).
Converted amounts (≈) assume the structure as drawn. One block for each molecule: values may come before it.

Legend:
Assay in all cases: In vitro antibacterial evaluation: minimum inhibitory concentration (MIC), broth dilution method
Format in all cases: cell-based
Enterococcus sp. = test system: Enterococcus sp.
Protocol: (§1) The minimum inhibitory concentration (MIC), the lowest concentration of the antibiotic which inhibits growth of the test organism, is determined by the broth dilution method using Muller-Hinton II […] (Baltimore Biological Laboratories) following the recommendations of the National Committee for Clinical Laboratory Standards [Methods for dilution antimicrobial susceptibility tests for bacteria that grow aerobically, approved standard M7-A2, National Committee for Clinical Laboratory Standards, Villanova, Pa].
(§2) An inoculum level of 5×10^5 CFU/mL, and a range of antibiotic concentrations (64-0.06 μg/mL) is used. […] The test organisms include a spectrum of Gram-positive bacteria comprised of Staphylococcus sp., Streptococcus sp. and Enterococcus sp. These organisms include recent clinical isolates that are resistant to methicillin, penicillin and/or vancomycin.

Staphylococcus sp. = settings: for MIC Staphylococcus aureus-SMITH (GC 4543): strain GC 4543; for MIC Staphylococcus haemolyticus (GC 4546): strain GC 4546; for MIC Coagulase Negative Staphylococcus (GC 4547): strain GC 4547; for MIC Coagulase Negative Staphylococcus (GC 4548): strain GC 4548; for MIC Coagulase Negative Staphylococcus (GC 4549): strain GC 4549; for MIC Coagulase Negative Staphylococcus (GC 4551): strain GC 4551; for MIC Coagulase Negative Staphylococcus (ID-3941): strain ID-3941
Protocol: as §1, §2

Streptococcus sp. = test system: Streptococcus sp.
Protocol: as §1, §2

Escherichia coli = test system: Escherichia coli
Protocol: as §1, §2

[1] = broth dilution, 18 hours at 35° C.
[2] = broth dilution, 5×10^5 CFU/mL, 18 hours at 35° C.

MIC Enterococcus faecalis (ATCC 29212) (Enterococcus sp.; strain ATCC 29212): 16 µg/mL (≈ 11.3 µM)
MIC Enterococcus faecalis (GC 2242) (Enterococcus sp.; strain GC 2242): 16 µg/mL (≈ 11.3 µM)
MIC Enterococcus faecium (GC 2243) (Enterococcus sp.; strain GC 2243): 16 µg/mL (≈ 11.3 µM)
MIC Enterococcus faecalis (GC 4552) (Enterococcus sp.; strain GC 4552): 32 µg/mL (≈ 22.5 µM)
MIC Enterococcus faecalis (GC 4553) (Enterococcus sp.; strain GC 4553): 16 µg/mL (≈ 11.3 µM)
MIC Enterococcus faecalis (GC 4554) (Enterococcus sp.; strain GC 4554): 32 µg/mL (≈ 22.5 µM)
MIC Enterococcus faecium (GC 4556) (Enterococcus sp.; strain GC 4556): 16 µg/mL (≈ 11.3 µM)
MIC Enterococcus faecium (GC 4557) (Enterococcus sp.; strain GC 4557): 4 µg/mL (≈ 2.81 µM)
MIC Enterococcus avium (GC 4558) (Enterococcus sp.; strain GC 4558): 16 µg/mL (≈ 11.3 µM)
MIC Staphylococcus aureus (ATCC 29213) (Staphylococcus sp.; [1]): 4 µg/mL (≈ 2.81 µM)
MIC Staphylococcus aureus (GC 1131) (Staphylococcus sp.; [1]): 4 µg/mL (≈ 2.81 µM)
MIC Staphylococcus aureus (GC 4541) (Staphylococcus sp.; [1]): 4 µg/mL (≈ 2.81 µM)
MIC Staphylococcus aureus (GC 4542) (Staphylococcus sp.; [1]): 4 µg/mL (≈ 2.81 µM)
MIC Staphylococcus aureus (GC 4544) (Staphylococcus sp.; [1]): 4 µg/mL (≈ 2.81 µM)
MIC Staphylococcus aureus (GC 4545) (Staphylococcus sp.; [1]): 4 µg/mL (≈ 2.81 µM)
MIC Staphylococcus aureus-SMITH (GC 4543) (Staphylococcus sp.; 18 hours at 35° C.): 4 µg/mL (≈ 2.81 µM)
MIC Staphylococcus aureus-SMITH (GC 4543) (Staphylococcus sp.; [1]): 4 µg/mL (≈ 2.81 µM)
MIC Coagulase Negative Staphylococcus (GC 4547) (Staphylococcus sp.): 4 µg/mL (≈ 2.81 µM)
MIC Coagulase Negative Staphylococcus (GC 4547) (Staphylococcus sp.; [1]): 4 µg/mL (≈ 2.81 µM)
MIC Coagulase Negative Staphylococcus (GC 4548) (Staphylococcus sp.): 4 µg/mL (≈ 2.81 µM)
MIC Coagulase Negative Staphylococcus (GC 4548) (Staphylococcus sp.; [1]): 4 µg/mL (≈ 2.81 µM)
MIC Coagulase Negative Staphylococcus (GC 4549) (Staphylococcus sp.): 2 µg/mL (≈ 1.41 µM)
MIC Coagulase Negative Staphylococcus (GC 4549) (Staphylococcus sp.; [1]): 2 µg/mL (≈ 1.41 µM)
MIC Coagulase Negative Staphylococcus (GC 4551) (Staphylococcus sp.): 8 µg/mL (≈ 5.63 µM)
MIC Coagulase Negative Staphylococcus (GC 4551) (Staphylococcus sp.; [1]): 8 µg/mL (≈ 5.63 µM)
MIC Coagulase Negative Staphylococcus (ID-3941) (Staphylococcus sp.): 2 µg/mL (≈ 1.41 µM)
MIC Coagulase Negative Staphylococcus (ID-3941) (Staphylococcus sp.; [1]): 2 µg/mL (≈ 1.41 µM)
MIC Streptococcus agalactiae (GC 4564) (Streptococcus sp.; strain GC 4564): 2 µg/mL (≈ 1.41 µM)
MIC Streptococcus pneumoniae (GC 4565) (Streptococcus sp.; strain GC 4565): <0.5 µg/mL
MIC Streptococcus pyogenes (ID-3187) (Streptococcus sp.; strain ID-3187): 1 µg/mL (≈ 0.703 µM)
MIC Escherichia coli (ATCC 25922) (Escherichia coli; strain ATCC 25922): >64 µg/mL
SMILES: CCCC(CCC)C(=O)OCC1OC(Oc2ccc(CC3NC(=O)C(C(C)c4ccccc4)NC(=O)CNC(=O)C(CO)NC(=O)C(C(O)C4CNC(=N)N4C4OC(CO)C(O)C(O)C4O)NC(=O)C(C(O)C4CNC(=N)N4)NC3=O)cc2)C(O)C(O)C1OC1OC(CO)C(O)C(O)C1O (stereo not drawn) [Example 99b, Cyclo[glycyl-β-methylphenylalanyl-O-(4-O-hexopyranosyl-6-O-(2-propylpentanoyl)hexopyranosyl]tyrosyl-3-(2-iminoimidazolidin-4-yl)seryl-3-(3-hexopyranosyl-2-iminoimidazolidin-4-yl)serylseryl]]
MIC Staphylococcus haemolyticus (GC 4546) (Staphylococcus sp.): 4 µg/mL (≈ 2.81 µM)
MIC Staphylococcus haemolyticus (GC 4546) (Staphylococcus sp.; [1]): 4 µg/mL (≈ 2.81 µM)

MIC Enterococccus avium (GC 4558) (Enterococcus sp.; [2]): 32 µg/mL (≈ 22.4 µM)
MIC Enterococccus faecalis (ATCC 29212) (Enterococcus sp.; [2]): 32 µg/mL (≈ 22.4 µM)
MIC Enterococccus faecalis (GC 4552) (Enterococcus sp.; [2]): 64 µg/mL (≈ 44.8 µM)
MIC Enterococccus faecalis (GC 4553) (Enterococcus sp.; [2]): 32 µg/mL (≈ 22.4 µM)
MIC Enterococccus faecalis (GC 4554) (Enterococcus sp.; [2]): 64 µg/mL (≈ 44.8 µM)
MIC Enterococccus faecium (GC 2243) (Enterococcus sp.; [2]): 32 µg/mL (≈ 22.4 µM)
MIC Enterococccus faecium (GC 4556) (Enterococcus sp.; [2]): 32 µg/mL (≈ 22.4 µM)
MIC Enterococccus faecium (GC 4557) (Enterococcus sp.; [2]): 2 µg/mL (≈ 1.4 µM)
MIC Enterococcus faecalis (GC 2242) (Enterococcus sp.; [2]): 16 µg/mL (≈ 11.2 µM)
MIC Staphylococcus aureus (ATCC 29213) (Staphylococcus sp.; strain ATCC 29213): 4 µg/mL (≈ 2.8 µM)
MIC Staphylococcus aureus (GC 1131) (Staphylococcus sp.; strain GC 1131): 4 µg/mL (≈ 2.8 µM)
MIC Staphylococcus aureus (GC 4541) (Staphylococcus sp.; strain GC 4541): 4 µg/mL (≈ 2.8 µM)
MIC Staphylococcus aureus (GC 4542) (Staphylococcus sp.; strain GC 4542): 8 µg/mL (≈ 5.6 µM)
MIC Staphylococcus aureus-SMITH (GC 4543) (Staphylococcus sp.; 18 hours at 35° C.): 4 µg/mL (≈ 2.8 µM)
MIC Staphylococcus aureus-SMITH (GC 4543) (Staphylococcus sp.; [1]): 4 µg/mL (≈ 2.8 µM)
MIC Staphylococcus aureus (GC 4544) (Staphylococcus sp.; strain GC 4544): 8 µg/mL (≈ 5.6 µM)
MIC Staphylococcus aureus (GC 4545) (Staphylococcus sp.; strain GC 4545): 4 µg/mL (≈ 2.8 µM)
MIC Coagulase Negative Staphylococcus (GC 4547) (Staphylococcus sp.): 2 µg/mL (≈ 1.4 µM)
MIC Coagulase Negative Staphylococcus (GC 4547) (Staphylococcus sp.; [1]): 2 µg/mL (≈ 1.4 µM)
MIC Coagulase Negative Staphylococcus (GC 4548) (Staphylococcus sp.): 2 µg/mL (≈ 1.4 µM)
MIC Coagulase Negative Staphylococcus (GC 4548) (Staphylococcus sp.; [1]): 2 µg/mL (≈ 1.4 µM)
MIC Coagulase Negative Staphylococcus (GC 4549) (Staphylococcus sp.): 1 µg/mL (≈ 0.7 µM)
MIC Coagulase Negative Staphylococcus (GC 4549) (Staphylococcus sp.; [1]): 1 µg/mL (≈ 0.7 µM)
MIC Coagulase Negative Staphylococcus (GC 4551) (Staphylococcus sp.): 8 µg/mL (≈ 5.6 µM)
MIC Coagulase Negative Staphylococcus (GC 4551) (Staphylococcus sp.; [1]): 8 µg/mL (≈ 5.6 µM)
MIC Coagulase Negative Staphylococcus (ID-3941) (Staphylococcus sp.): 1 µg/mL (≈ 0.7 µM)
MIC Coagulase Negative Staphylococcus (ID-3941) (Staphylococcus sp.; [1]): 1 µg/mL (≈ 0.7 µM)
MIC Streptococcus agalactiae (GC 4564) (Streptococcus sp.; [2]): 2 µg/mL (≈ 1.4 µM)
MIC Streptococcus pneumoniae (GC 4565) (Streptococcus sp.; [2]): <0.5 µg/mL
MIC Streptococcus pyogenes (ID-3187) (Streptococcus sp.; [2]): 2 µg/mL (≈ 1.4 µM)
MIC Escherichia coli (ATCC 25922) (Escherichia coli; 5×10^5 CFU/mL, 18 hours at 35° C.): >64 µg/mL
SMILES: CC(c1ccccc1)C1NC(=O)CNC(=O)C(CO)NC(=O)C(C(O)C2CNC(=N)N2C2OC(CO)C(O)C(O)C2O)NC(=O)C(C(O)C2CNC(=N)N2)NC(=O)C(Cc2ccc(OC3OC(COC(=O)OCc4ccccc4)C(OC4OC(CO)C(O)C(O)C4O)C(O)C3O)cc2)NC1=O (stereo not drawn) [Example 101, Cyclo[glycyl-β-methylphenylalanyl-O-[4-O-hexopyranosyl-6-O-[(phenylmethoxy)carbonyl]-hexopyranosyl]tyrosyl-3-(2-iminoimidazolidin-4-yl)seryl-3-(3-hexopyranosyl-2-iminoimidazolidin-4-1/1)serylseryl]]
MIC Staphylococcus haemolyticus (GC 4546) (Staphylococcus sp.): 4 µg/mL (≈ 2.8 µM)
MIC Staphylococcus haemolyticus (GC 4546) (Staphylococcus sp.; [1]): 4 µg/mL (≈ 2.8 µM)
